According to patent US9851354B2, “Methods of treating fragile X syndrome and related disorders” (Alcobra Ltd., priority 2013, dated 2017):
“Also recorded” adds a separate entry of the source.

Key:
[1] = cited from earlier work
[2] = system: Fmr1 knockout (KO) or Wild Type (WT) mice; assay: Y-maze reference memory task (rewarded); format: in vivo, mouse; conditions: 2 months old, 150 mg/kg once daily 7 days, Study 1
Procedure: (§1) Fmr1 knockout mice (KO2) mice (The Dutch-Belgium Fragile X Consortium, 1994), initially obtained from the Jackson Laboratory, and wild type (WT) littermates were generated on a C57BL/6J background and repeatedly backcrossed onto a C57BL/6J background for more than eight generations. The Fmr1 knockout mice were housed in groups of the same genotype in a temperature and humidity controlled room with a 12-h light-dark cycle (lights on from 7 am to 7 pm; testing was conducted during light phase). Room temperature and humidity were recorded continuously in the holding room while food and water were available ad libitum. Testing was conducted on healthy Fmr1 knockout mice and their wild type littermates (N=10 mice per treatment group) at 2 or 6 months of age during the behavioral experiments. Mice were housed in commercial plastic cages and experiments were conducted in line with the requirements of the UK Animals (Scientific Procedures) Act, 1986. All experiments were conducted with experimenters blind to genotype and drug treatment. Animals were allowed a minimum acclimatization period of one week prior to performing any experiment. No prophylactic or therapeutic treatment was administered during the acclimatization period.
(§2) In all cases, saline was used as a vehicle (control).
Two tasks were implemented. The first was an unlearned assessment of spontaneous alternation between arm entries. […]

[3] = system: Fmr1 knockout (KO) or Wild Type (WT) mice; assay: Successive alleys (anxiety and hyperactivity); format: in vivo, mouse; conditions: 2 months old, 150 mg/kg once daily 7 days, Study 1
Procedure: as §1, §2
The apparatus consisted of four successive, linearly arranged, increasingly anxiogenic alleys (each succeeding alley was painted a lighter color, had lower walls and/or was narrower than the previous alley) made of painted wood. Each section or alley was 25 cm long. Alley 1 had 25 cm high walls, was 8.5 cm wide, and was painted black. A 0.5 cm step down led to alley 2, which was again 8.5 cm wide, but had 1.3 cm high walls and was grey. A 1.0 cm step down led to alley 3, which was 3.5 cm wide, had 0.8 cm high walls, and was white. A 0.4 cm step led down to alley 4, which was also white, but had 1.2 cm wide and 0.2 cm high walls. The apparatus was elevated by anchoring the back of alley 1 to a stand, 50 cm high. Padding was provided under arms 3 and 4 in case a mouse fell off. Each mouse was placed at the closed end of alley 1 facing the wall. Timers were started 1) for the overall length of the test (5 min)+the latency to enter each arm, and 2) for the time spent in alley 1. When the mouse placed all 4 feet on to the next alley, it was considered to have entered the alley. Total time spent in each alley (all four feet) was recorded.
(§3) Multivariate analysis of variance was employed to assess group differences across data. Repeated measures ANOVA were performed for behavioral data. Statistically significant effects in each ANOVA were followed with post hoc comparisons, using the Newman-Keuls test (Study 1) or the Tukey test (Study 2). A p value of less than 0.05 was considered significant.
The successive alleys test effectively measured anxiety (latency to enter the Alley 1) and hyperactivity (Alleys 2 to 4). Progression from Alley 1 through the successive Alleys 2, 3, and 4 was associated with exposure to an increasingly brightly colored environment with increasingly lower walls and narrower, more exposed open arms. Time spent on, and entries into, the open arms indicated anxiety; conversely, increasing time spent in more open arms reflected hyperactivity. These factors allowed for a sensitive test bracketing a range of anxiety-like behaviors together with hyperactivity.

[4] = system: Fmr1 knockout (KO) or Wild Type (WT) mice; assay: Contextual fear conditioning (freezing); format: in vivo, mouse
Procedure: as §1, §2
In the fear conditioning experiment, mice were placed into a novel environment (dark chamber) and received pairings of a cue and electric footshock (0.2 mA for 1 sec (Study 1) or 0.7 mA for 0.5 sec (Study 2)). […] Freezing time was defined as the time that the mice spent in immobile behavior, except for respiration. The data was expressed as the percentage of the test period. 24 hours after a training session, mice were tested for 5 min in the training chamber with no shock presentation and observed for freezing behavior.
as §3

[5] = system: ERK; assay: Lymphocyte pERK (flow cytometry); format: in vivo, mouse; conditions: Fmr1 KO mice, 2 months old
Procedure: as §2
The Ras-Mek-ERK and PI3K-Akt-mToR signaling pathways are involved in mediating activity dependent alterations in gene transcription underlying changes in synaptic plasticity (Klann and Dever, 2004). Phosphorylated ERK and Akt protein expression was measured by western blot analysis as previously described by Lopez Verrilli (Lopez Verrilli et al., 2009). The antibodies employed were anti-phosphospecific antibodies against Akt (1/1000) and kinase (ERK) 1/2 (1/2000) (Cell Signaling Technology, Danvers, Mass., USA). The antibody against phospho-ERK detects phosphorylation at phospho-ERK 1/2 (Thr202/Tyr204) whereas the antibody against phospho-Akt detects phosphorylation at phospho-Akt (Thr308). Total Akt and ERK 1/2 protein content and phosphorylated ERK and Akt were evaluated by blotting membranes with antiphospho-Akt (1/1000) and antiphospho-ERK antibodies (1/2000) (Cell Signaling Technology, Danvers, Mass., USA). Akt or ERK phosphorylation was normalized to protein content in the same sample and expressed as % of change with respect to basal conditions, considering basal levels as 100%. Protein loading was evaluated by stripping and re-blotting membranes with j-actin antibody (1/1000) (Sigma-Aldrich, St. Louis, Mo., USA). Phosphorylated ERK and Akt protein expression in blood lymphocytes was measured by flow cytometry. For lymphocyte biomarker determinations, a FACStar plus (Becton Dickinson) was used with the excitation laser tuned at 488 nm and green fluorescence from FITC (GST) was collected through a 515-545 nm bandpass filter. The mean FITC fluorescence Intensity was calculated in relation to the fluorescence of reference cells. The mean cellular fluorescence intensity (MFI) is directly proportional to the mean number of Ab molecules bound per cell.

Cc1ncc(CO)c(CO)c1O.O=C1CC[C@@H](C(=O)O)N1 [metadoxine, pyridoxol L,2-pyrrolidon-5 carboxylate]
mean half life ([1]; human serum, Lu Yuan et al. 2007): about 0.8 hour | half-life in human serum ([1]; human serum, no appreciable differences between oral and intravenous administration): 40 to 60 min | oral bioavailability ([1]; oral): 60-80% | Y-maze rewarded reference memory learning (appropriate arm entries) ([2]; Fmr1 KO mice): reduced this deficit | Y-maze rewarded reference memory learning ([2]; WT mice): No Effect on WT Mice | successive alleys, Alley 1 (anxiety) ([3]; Fmr1 KO mice): complete normalization occurred | successive alleys, Alley 2 (hyperactivity) ([3]; Fmr1 KO mice): reversal of hyperactivity was partial | successive alleys, Alley 3 (hyperactivity) ([3]; Fmr1 KO mice): hyperactivity was not reversed | successive alleys, Alley 4 (hyperactivity) ([3]; Fmr1 KO mice): reversed this hyperactivity | successive alleys, Alley 1 (anxiety) ([3]; WT mice): no effect on WT mice | successive alleys, Alley 2 (activity) ([3]; WT mice): no effect on WT mice | successive alleys, Alley 3 (activity) ([3]; WT mice): no effect on WT mice | successive alleys, Alley 4 (activity) ([3]; WT mice): no effect on WT mice | contextual fear conditioning, freezing (learning deficit) ([4]; Fmr1 KO mice aged six months, 150 mg/kg ip once daily 7 days, Study 2): complete reversal | contextual fear conditioning, freezing (learning deficit) ([4]; Fmr1 KO mice, 2 months old, 100 mg/kg ip once daily 7 days, Study 1): partial reversal | contextual fear conditioning, freezing (learning deficit) ([4]; Fmr1 KO mice, 2 months old, 150 mg/kg ip once daily 7 days, Study 1, 150 mg/kg): reversed the learning deficit effect in Fmr1 knockout mice, this reversal being partial; also recorded: fully rescued | contextual fear conditioning, freezing behavior ([4]; Fmr1 KO mice, 2 months old, 150 mg/kg ip once daily 7 days, Study 2): the reversal was complete | contextual fear conditioning, freezing behavior ([4]; Fmr1 KO mice, 2 months old, 150 mg/kg oral once daily 7 days, Study 2): the reversal was complete | contextual fear conditioning, freezing (learning deficit) ([4]; Fmr1 KO mice, 2 months old, 200 mg/kg ip once daily 7 days, Study 1, 200 mg/kg): completely reversed; also recorded: fully rescued | contextual fear conditioning, freezing behavior ([4]; Fmr1 KO mice, 2 months old, 300 mg/kg oral once daily 7 days, Study 2): the reversal was complete | contextual fear conditioning, freezing behavior ([4]; WT mice, 2 months old, 150 mg/kg ip or 150 and 300 mg/kg oral, 7 days, Study 2): No effects were seen | contextual fear conditioning, freezing ([4]; WT mice, 2 months old, 100, 150 or 200 mg/kg ip once daily 7 days, Study 1): no effect on WT mice | lymphocyte pERK ([5]; 150 mg/kg ip once daily 7 days): normalized overactivated ERK | lymphocyte pERK ([5]; 150 mg/kg oral once daily 7 days): normalized overactivated ERK | lymphocyte pERK ([5]; 300 mg/kg oral once daily 7 days): normalized overactivated ERK
